From patent EP1946754A1, “THERAPEUTIC AGENT FOR ULCERATIVE COLITIS AND/OR CROHN'S DISEASE” (Yamamoto, Keiko, priority 2005, dated 2007)

What was measured:
[1] = tested on: dextran sodium sulfate (DSS)-induced ulcerative colitis model in the rat; assay: Rat model of DSS-induced ulcerative colitis, 7-day repetitive intrarectal administration (Example 1); type: in vivo, SD rats; settings: 7 days; for Hb / Ht / RBC / WBC: hematological examination, i.r., DSS rat; for colon contraction: DSS rat (Figure 2)
Source text: The therapeutic effect of YY-1 was investigated with the 7-day repetitive intrarectal administration using a dextran sodium sulfate (DSS)-induced ulcerative colitis model in the rat (Cancer Research, 61, 2424-2428, 2001). To generate the rat model of DSS-induced ulcerative colitis, a 3% aqueous DSS solution was ingested ad libitum by SD rats (male, age: 7 weeks) purchased from Charles River Laboratories Japan Inc., and animals presenting bloody stools were used as the rat model of DSS-induced ulcerative colitis.
The negative control group received 0.5% aqueous CMC-Na solution (vehicle) by intrarectal administration, while the positive control group received 100 mg/kg/day 5-aminosalicylic acid (5-ASA, purchased from Aldrich Chemical Company) dissolved in 0.5% aqueous CMC-Na solution by intrarectal administration. For YY-1, the compound was combined with 0.5% aqueous CMC-Na solution by means of a vortex mixing and sonication to form a suspension, and was administered intrarectally at 20 mg/kg/day (low dose group), 100 mg/kg/day (intermediate dose group), and 500 mg/kg/day (high dose group). Each group contained 8 SD rats, and a 1% aqueous DSS solution was ingested ad libitum during the test period.

[2] = tested on: dextran sodium sulfate (DSS)-induced ulcerative colitis model in the mouse; assay: Mouse model of DSS-induced ulcerative colitis, 7-day repetitive intrarectal administration, 5.0% DSS during test period (Example 2); type: in vivo, c57BL/6J mice; settings: 7 days; for body weight gain: P < 0.05 (Figure 4); for symptom alleviation: P < 0.05 (Figure 5); for colon contraction: P < 0.05 (Figure 6)
Source text: (§1) The therapeutic effect of YY-1 was investigated with the 7-day repetitive intrarectal administration using a dextran sodium sulfate (DSS)-induced ulcerative colitis model in the mouse. To generate the mouse model of DSS-induced ulcerative colitis, a 9.0% aqueous DSS solution was ingested ad libitum for 7 days by c57BL/6J (male, age: 8 weeks) purchased from CLEA Japan, Inc., and animals presenting body weight loss, bloody stool, and/or diarrhea were used as the mouse model of DSS-induced ulcerative colitis.
The negative control group received 0.5% aqueous CMC-Na solution by intrarectal administration, while the positive control group received 100 mg/kg/day 5-aminosalicylic acid (5-ASA, purchased from Aldrich Chemical Company) dissolved in 0.5% aqueous CMC-Na solution by intrarectal administration. For YY-1, the compound was combined with 0.5% aqueous CMC-Na solution by means of an ultrasound mixer under ice cooling to form a suspension, and was administered intrarectally at 100 mg/kg/day or 500 mg/kg/day. Each group contained 8 c57BL/6J mice, and a 5.0% aqueous DSS solution was ingested ad libitum during the test period (Figure 3).

[3] = tested on: dextran sodium sulfate (DSS)-induced ulcerative colitis model in the mouse; assay: Mouse model of DSS-induced ulcerative colitis, 7-day repetitive intrarectal administration, 9.0% DSS during test period (Example 3); type: in vivo, c57BL/6J mice; settings: 500 mg/kg/day intrarectal, 7 days
Source text: as §1
The negative control group received 0.5% aqueous CMC-Na solution by intrarectal administration. For YY-1, the compound was combined with 0.5% aqueous CMC-Na solution by means of an ultrasound mixer under ice cooling to prepare a suspension, and was administered intrarectally at 500 mg/kg/day. Each group contained 8 c57BL/6J mice, and a 9.0% aqueous DSS solution was ingested ad libitum during the test period (Figure 7).

Nc1ccc(O)c(C(=O)O)c1 [5-ASA, 5-aminosalicylic acid, reference compound]
Hb ([1]; 100 mg/kg/day): 13.3 ± 0.4 g/dL | Ht ([1]; 100 mg/kg/day): 41.7 ± 1.1% | RBC ([1]; 100 mg/kg/day): 633 ± 27 x 10^4/µL | WBC ([1]; 100 mg/kg/day): 126 ± 20 x 10^2/µL

CC/C=C\C/C=C\C/C=C\C/C=C\C/C=C\C=C\C(O)CCC(=O)O (stereo not shown) [YY-1, (5E,7Z,10Z,13Z,16Z,19Z)-4-hydroxy-5,7,10,13,16,19-docosahexaenoic acid]
colon contraction ([1]; 100 mg/kg/day intrarectal): significant improvement | area of erosion in the mucous membrane of the colon ([1]; 500 mg/kg/day intrarectal, DSS rat (Figure 1)): significant reduction | colon contraction ([1]; 500 mg/kg/day intrarectal): significant improvement | Hb ([1]; 20 mg/kg/day): 11 ± 1.5 g/dL | Ht ([1]; 20 mg/kg/day): 35.5 ± 4.6% | RBC ([1]; 20 mg/kg/day): 519 ± 80 x 10^4/µL | WBC ([1]; 20 mg/kg/day): 136 ± 34 x 10^2/µL | Hb ([1]; 100 mg/kg/day): 12.2 ± 0.9 g/dL | Ht ([1]; 100 mg/kg/day): 41.5 ± 3.2% | RBC ([1]; 100 mg/kg/day): 605 ± 51 x 10^4/µL | WBC ([1]; 100 mg/kg/day): 120 ± 13 x 10^2/µL | Hb ([1]; 500 mg/kg/day): 13.8 ± 0.3 g/dL | Ht ([1]; 500 mg/kg/day): 45.7 ± 1.1% | RBC ([1]; 500 mg/kg/day): 670 ± 20 x 10^4/µL | WBC ([1]; 500 mg/kg/day): 138 ± 14 x 10^2/µL | body weight gain ([2]; 100 mg/kg/day intrarectal): significant improvement | symptom alleviation ([2]; 100 mg/kg/day intrarectal): significant improvement | colon contraction ([2]; 100 mg/kg/day intrarectal): significant improvement | body weight gain ([2]; 500 mg/kg/day intrarectal): significant improvement | symptom alleviation ([2]; 500 mg/kg/day intrarectal): significant improvement | colon contraction ([2]; 500 mg/kg/day intrarectal): significant improvement | colon contraction ([3]; P < 0.01 (Figure 10)): significant improvement | body weight gain ([3]; P < 0.05 (Figure 8)): significant improvement | symptom alleviation ([3]; P < 0.05 (Figure 9)): significant improvement
